pIC50: −log10 of the molar value.
Tested on: 695427-040-R-J1-PDC complex spheroid viability
Assay: Anticancer human tumor 695427-040-R-J1-PDC patient-derived colon adenocarcinoma cell line growth inhibition [POLQ]
Details: for pIC50: curve of first compound; for viability, T/C: stronger effect = lower value
In short: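 PDC + HUVEC + MSC complex spheroids; POLQ inhibitors ± partner drugs; top conc. at/near clinical Cmax, else 10 microM (SN-38 1 microM), half-log dilutions; 37 degrees C, 5% CO2.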
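Note: spheroids exposed to compounds for seven days.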
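Throughout, for viability, T/C: 100% = DMSO vehicle control viability.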

`CC(=O)O[C@H]1C(=O)[C@@]2(C)[C@H]([C@H](OC(=O)c3ccccc3)[C@]3(O)C[C@H](OC(=O)[C@H](O)[C@@H](NC(=O)c4ccccc4)c4ccccc4)C(C)=C1C3(C)C)[C@]1(OC(C)=O)CO[C@@H]1C[C@@H]2O` + Nc1ccc(C#CCN(C(=O)Cc2ncc(C(F)(F)F)cc2C(F)(F)F)c2ccc(F)cc2)nn1 was tested, and the pIC50 (second compound 0.0316 µM) was less than 5.52, the pIC50 (second compound 0.1 µM) was less than 5.52 and the pIC50 (second compound 0.316 µM) was less than 5.52. It also gave a pIC50 (second compound 1 µM) of less than 5.52, a pIC50 (second compound 3.16 µM) of less than 5.52 and a pIC50 (second compound 10 µM) of less than 5.52. The viability, T/C (second compound 0.0316 µM, first compound 0.00949 µM) was 98.2%, the viability, T/C (second compound 0.0316 µM, first compound 0.03 µM) was 93.4% and the viability, T/C (second compound 0.0316 µM, first compound 0.0949 µM) was 93.3%. The viability, T/C (second compound 0.0316 µM, first compound 0.3 µM) was 97.1%, the viability, T/C (second compound 0.0316 µM, first compound 0.949 µM) was 97.9% and the viability, T/C (second compound 0.0316 µM, first compound 3 µM) was 81.2%. It also gave a viability, T/C (second compound 0.1 µM, first compound 0.00949 µM) of 99.9%, a viability, T/C (second compound 0.1 µM, first compound 0.03 µM) of 99.6% and a viability, T/C (second compound 0.1 µM, first compound 0.0949 µM) of 91.8%. For the same molecule, the viability, T/C (second compound 0.1 µM, first compound 0.3 µM) was 91.5%, the viability, T/C (second compound 0.1 µM, first compound 0.949 µM) was 89.5% and the viability, T/C (second compound 0.1 µM, first compound 3 µM) was 79.7%. For the same molecule, the viability, T/C (second compound 0.316 µM, first compound 0.00949 µM) was 108%, the viability, T/C (second compound 0.316 µM, first compound 0.03 µM) was 101% and the viability, T/C (second compound 0.316 µM, first compound 0.0949 µM) was 88.4%. The viability, T/C (second compound 0.316 µM, first compound 0.3 µM) was 91.6%, the viability, T/C (second compound 0.316 µM, first compound 0.949 µM) was 88.9% and the viability, T/C (second compound 0.316 µM, first compound 3 µM) was 90.3%. For the same molecule, the viability, T/C (second compound 1 µM, first compound 0.00949 µM) was 102%, the viability, T/C (second compound 1 µM, first compound 0.03 µM) was 93.3% and the viability, T/C (second compound 1 µM, first compound 0.0949 µM) was 102%. The viability, T/C (second compound 1 µM, first compound 0.3 µM) was 99.3%, the viability, T/C (second compound 1 µM, first compound 0.949 µM) was 90.9% and the viability, T/C (second compound 1 µM, first compound 3 µM) was 78.8%. It also gave a viability, T/C (second compound 3.16 µM, first compound 0.00949 µM) of 106%, a viability, T/C (second compound 3.16 µM, first compound 0.03 µM) of 84.7% and a viability, T/C (second compound 3.16 µM, first compound 0.0949 µM) of 95.1%. It also gave a viability, T/C (second compound 3.16 µM, first compound 0.3 µM) of 90.5%, a viability, T/C (second compound 3.16 µM, first compound 0.949 µM) of 88.2% and a viability, T/C (second compound 3.16 µM, first compound 3 µM) of 86.8%. The viability, T/C (second compound 10 µM, first compound 0.00949 µM) was 92.7%, the viability, T/C (second compound 10 µM, first compound 0.03 µM) was 82.7% and the viability, T/C (second compound 10 µM, first compound 0.0949 µM) was 86.7%. For the same molecule, the viability, T/C (second compound 10 µM, first compound 0.3 µM) was 91.2%, the viability, T/C (second compound 10 µM, first compound 0.949 µM) was 90.2% and the viability, T/C (second compound 10 µM, first compound 3 µM) was 86.4%.

Work on `CC[C@@]1(O)C(=O)OCc2c1cc1n(c2=O)Cc2cc3c(CN(C)C)c(O)ccc3nc2-1` + Nc1ccc(C#CCN(C(=O)Cc2ncc(C(F)(F)F)cc2C(F)(F)F)c2ccc(F)cc2)nn1 yielded a pIC50 (second compound 0.0316 µM) of less than 7.00, a pIC50 (second compound 0.1 µM) of less than 7.00 and a pIC50 (second compound 0.316 µM) of less than 7.00. For the same molecule, the pIC50 (second compound 1 µM) was less than 7.00, the pIC50 (second compound 3.16 µM) was less than 7.00 and the pIC50 (second compound 10 µM) was less than 7.00. The viability, T/C (second compound 0.0316 µM, first compound 0.000316 µM) was 110%, the viability, T/C (second compound 0.0316 µM, first compound 0.001 µM) was 111% and the viability, T/C (second compound 0.0316 µM, first compound 0.00316 µM) was 102%. The viability, T/C (second compound 0.0316 µM, first compound 0.01 µM) was 102%, the viability, T/C (second compound 0.0316 µM, first compound 0.0316 µM) was 115% and the viability, T/C (second compound 0.0316 µM, first compound 0.1 µM) was 109%. The viability, T/C (second compound 0.1 µM, first compound 0.000316 µM) was 114%, the viability, T/C (second compound 0.1 µM, first compound 0.001 µM) was 105% and the viability, T/C (second compound 0.1 µM, first compound 0.00316 µM) was 104%. It also gave a viability, T/C (second compound 0.1 µM, first compound 0.01 µM) of 100%, a viability, T/C (second compound 0.1 µM, first compound 0.0316 µM) of 107% and a viability, T/C (second compound 0.1 µM, first compound 0.1 µM) of 103%. The viability, T/C (second compound 0.316 µM, first compound 0.000316 µM) was 109%, the viability, T/C (second compound 0.316 µM, first compound 0.001 µM) was 102% and the viability, T/C (second compound 0.316 µM, first compound 0.00316 µM) was 108%. For the same molecule, the viability, T/C (second compound 0.316 µM, first compound 0.01 µM) was 97.7%, the viability, T/C (second compound 0.316 µM, first compound 0.0316 µM) was 108% and the viability, T/C (second compound 0.316 µM, first compound 0.1 µM) was 101%. For the same molecule, the viability, T/C (second compound 1 µM, first compound 0.000316 µM) was 100%, the viability, T/C (second compound 1 µM, first compound 0.001 µM) was 97.8% and the viability, T/C (second compound 1 µM, first compound 0.00316 µM) was 105%. It also gave a viability, T/C (second compound 1 µM, first compound 0.01 µM) of 109%, a viability, T/C (second compound 1 µM, first compound 0.0316 µM) of 110% and a viability, T/C (second compound 1 µM, first compound 0.1 µM) of 103%. It also gave a viability, T/C (second compound 3.16 µM, first compound 0.000316 µM) of 107%, a viability, T/C (second compound 3.16 µM, first compound 0.001 µM) of 111% and a viability, T/C (second compound 3.16 µM, first compound 0.00316 µM) of 102%. The viability, T/C (second compound 3.16 µM, first compound 0.01 µM) was 107%, the viability, T/C (second compound 3.16 µM, first compound 0.0316 µM) was 114% and the viability, T/C (second compound 3.16 µM, first compound 0.1 µM) was 103%. It also gave a viability, T/C (second compound 10 µM, first compound 0.000316 µM) of 99.5%, a viability, T/C (second compound 10 µM, first compound 0.001 µM) of 98.3% and a viability, T/C (second compound 10 µM, first compound 0.00316 µM) of 103%. For the same molecule, the viability, T/C (second compound 10 µM, first compound 0.01 µM) was 89.4%, the viability, T/C (second compound 10 µM, first compound 0.0316 µM) was 95.3% and the viability, T/C (second compound 10 µM, first compound 0.1 µM) was 93.9%.
